Data published in US7214535B2, “Glyphosate-tolerant 5-enolpyruvylshikimate-3-phosphate synthase and the gene encoding the same” (Peking University, priority 2002, dated 2007).

System: strain 4G-1
Assay: Growth of isolated strain 4G-1 on media comprising glyphosate or Ampicillin
Format: cell-based, Pseudomonas putida
Protocol: The sample were taken from neighborhood of a glyphosate producing factory in Hebei Province, China, and were diluted and spread on mediums comprising glyphosate. A total of 48 strains are isolated with high tolerance and degradation ability to glyphosate. One strain of them, 4G-1, is able to grow on a medium with 400 mM glyphosate, and is resistant to 100 mg/L Ampicillin. Said strain is selected for further studies.
The resulting products are purified by a purification method for PCR product, and are ligated to a T vector (Takara, Dalian) according to the instruction of manufacturer Takara to obtain plasmid pKU2000. […] Using BLAST software and BLASTP 2.2.2 [Dec. […] Thus, strain 4G-1 is thought to be P. putida, and is designated as P. putida 4G-1 (abbreviated as P. P4G-1). Said strain is deposited on Apr. 30, 2002 at the Chinese General Microbiological Culture Centre (CGMCC) (ZhongGuan Cun, Beijing, China) with the accession number CGMCC 0739.

In the case of CC1(C)S[C@@H]2[C@H](NC(=O)[C@H](N)c3ccccc3)C(=O)N2[C@H]1C(=O)O [Ampicillin], the “resistance of strain 4G-1 to Ampicillin” value (100 mg/L Ampicillin) is reported as “resistant”.
For O=C(O)CNCP(=O)(O)O [glyphosate, N-phosphylmethyl glycine], the “growth of strain 4G-1 on medium with glyphosate” value (400 mM glyphosate) was “able to grow”.
